The subject of test [1] is Aiolos. As to the kind of experiment: Aiolos protein level in whole blood leukocyte subsets, flow cytometry. The conditions noted are these: 1, 10, 100 nM, 18 hrs; CD19+ B cells, CD3+ T cells, CD14+ monocytes, granulocytes. It is filed as cell-based, human. On the procedure:
(§1) Human heparinized whole blood from normal healthy volunteers (Bioreclamation, Westbury, N.Y.) was treated with 0.1% DMSO and Compound 1A (1, 10, 100 nM) for 18 hrs at 37° C., 5% CO2. After 18 hrs, the blood was lysed and fixed with 1× Lyse/Fix Buffer (BD Biosciences) for 10 minutes at 37° C. Washed cells with cold PBS and cells were first multicolor stained with mouse anti-human CD3-PE mAb, mouse anti-human CD19-APC mAb and mouse anti-human-CD14-PerCP mAb (all from BD Biosciences) to identify CD3+ T cells, CD19+ B cells and CD14+ monocytes, respectively. The cells were then permeabilized by adding BD Perm/Wash Buffer I. Blocked non-specific binding by added FcR Blocking Reagent (Miltenyi Biotech) for 10 minutes prior to staining for intracellular Aiolos or Ikaros content. The cells were then stained with rabbit anti-human Aiolos polyclonal Ab (Santa Cruz, 1:200 dilution in Perm/Wash Buffer) or anti-human Ikaros polyclonal Ab (Santa Cruz, 1:50 dilution in Perm/Wash Buffer), followed by a goat-anti-rabbit mAb-AF488 Ab (Invitrogen, at 1:400 dilution in Perm/Wash Buffer) to test the intracellular Aiolos or Ikaros levels. […] Aiolos and Ikaros protein levels in B cells, T cells, monocytes and granulocytes were analyzed by FACSCanto with FACSDiva 6 (BD Biosciences) based on the gating of CD3+ cells, CD19+ cells, CD14+ cells and granulocytes (FSC/SSC). […]
Background: Flow cytometry measures light scatter and fluorescence of single cells or particles in a stream.

The subject of a further test is Ikaros. The test is described as follows: Ikaros protein level in whole blood leukocyte subsets, flow cytometry. The test is classed as cell-based, human. Particulars: 1, 10, 100 nM, 18 hrs; CD19+ B cells, CD3+ T cells, CD14+ monocytes, granulocytes. On the procedure: as §1
Test [2] relates to anti-dsDNA autoantibodies, SLE PBMC. As to the kind of experiment: Anti-dsDNA autoantibody production in cultures of SLE PBMC (ELISA). Particulars: Homo sapiens, N=9. It is filed as cell-based. As for the experimental part:
(§2) PBMCs were purified from human buffy coats using Ficoll-Paque method. CD19+ B cells were isolated from PBMC by following EasySep Human B cell enrichment cocktail protocol (StemCell Technologies Catalog #19054). Fresh B cell cocktail was prepared by adding 50 μg/mL of human transferrin to B cell medium (Iscove's medium with 10% PFBS, 1% P/S, and 5 μg/mL human insulin). The required volume of medium needed for the experiment was filtered through a 0.22 micron filter. B cell differentiation cocktail (final concentration): recombinant human Interleukin (IL)-2 (20 U/mL), IL-10 (50 ng/mL), IL-15 (10 ng/mL), CD40 Ligand/TNFSF5/histidine-tagged (50 ng/mL), polyHistidine mouse IgG1 antibody (5 μg/mL), and ODN 2006-Human TLR9 ligand (10 μg/mL). CD19+ cells were pretreated with Compound 1A or a Syk inhibitor or 0.1% DMSO for 1 hr, then incubated with B-cell differentiation medium for indicated times.
(§3) Whole blood samples from patients identified with SLE were obtained from Sanguine Biosciences; Inc. the blood was diluted with sterile Dulbecco's phosphate buffered saline solution (DPBS) and placed into three 50-mL conical tubes. […] Cell culture supernatants were harvested and analyzed for autoantibodies using an Anti-double stranded DNA antibody ELISA kit (Orgentec ORG 604S) and an Anti-Cardiolipin/Phospholipid ELISA kit (Orgentec ORG-529).
In general terms: An ELISA detects its analyte on a solid surface through an enzyme-linked reagent.

The subject of test [3] is anti-phospholipid autoantibodies, SLE PBMC. The test is described as follows: Anti-phospholipid autoantibody production in cultures of SLE PBMC (ELISA). The test is classed as cell-based. Particulars: Homo sapiens, N=8. On the procedure: as §2, §3
Test [4] deals with Aiolos. As to the kind of experiment: B cell intracellular Aiolos after single doses in healthy volunteers. The test is classed as in vivo, human. As for the experimental part:
(§4) Healthy volunteers were administered placebo (n=10) or Compound 1A at doses of 0.03 mg, 0.1 mg, 0.3 mg, 1 mg, or 2 mg (N=6 each). Blood samples were drawn prior to dosing, or 3 hr, 12 hr, and 24 hr after dosing. Blood samples were lysed and fixed immediately by mixing 1 volume of blood with 20 volumes of 1× Lyse/Fix buffer (BD Biosciences, cat#558049) and mixing thoroughly by inverting the tube several times. This sample mix was incubated in a 37° C. water bath for 10 minutes, and the cells were pelleted by centrifugation at 800×g for 5 minutes to remove the supernatant by aspiration. The cells were washed twice with 2 mL of cold phosphate buffer saline (PBs), then permeabilized by adding 2 mL of cold BD Cytofix/cytoperm buffer and incubated on ice for 15 minutes. The cells were centrifuged than washed twice with BD perm/wash buffer, then resuspended in 40 ul of BD perm/wash buffer. Cells were stained with anti-CD3 or anti-CD19 antibody, and 20 ul of anti-Aiolos Ab (Santa Cruz Santa Cruz, rabbit polyclonal IgG, cat #sc-101982 at 1:200 dilution with staining buffer), or 20 uL of appropriate isotype controls to cells. Cells were mixed thoroughly and incubated at room temperature for 30 minutes in the dark, washed once with BD perm/wash buffer, then resuspended in 80 ul of BD perm/wash buffer, and 20 uL of secondary antibody was added before analysis on a flow cytometer.

Test [5] deals with Aiolos. The test is described as follows: T cell intracellular Aiolos after single doses in healthy volunteers. It is filed as in vivo, human. Particulars: 12 hours postdose. As for the experimental part: as §4
The test system of another test is CD19+ B cells. As to the kind of experiment: Peripheral blood B cell counts in healthy volunteers. The test is classed as in vivo. Particulars: Homo sapiens. On the procedure: as §4, with “Blood samples were drawn prior to dosing, or 3 hr, 12 hr, and 24 hr after dosing.” left out
Absolute B cell counts in the peripheral blood were measured by flow cytometry with anti-CD19 antibody as described above.

Another test relates to CD3+ T cells. As to the kind of experiment: Peripheral blood T cell counts in healthy volunteers. It is filed as in vivo, human. As for the experimental part:
as §4
Absolute T cell counts in the peripheral blood were measured by flow cytometry with anti-CD3 antibody as described above.

The test system of the next test is IL-2. The test is described as follows: Ex vivo IL-2 production in anti-CD3-stimulated whole blood of dosed healthy volunteers. Details: species or system human. Particulars: 12 hours postdose on Day 1. The source says:
Whole blood was stimulated with anti-CD3 antibody and analyzed for IL-2 using the CD3 TruCulture system (Part number 782-001202) by Myriad Rules Based Medicine (Austin, Tex.).

A further test has as its system IL-1β. The test is described as follows: Ex vivo IL-1β production in lipopolysaccharide-stimulated whole blood of dosed healthy volunteers. Particulars: 12 hours postdose. The arrangement: species or system human. The source says:
Whole blood was stimulated with lipopolysachharide and analyzed for IL-1β using the LPS TruCulture system (Part number 782-001087) by Myriad Rules Based Medicine (Austin, Tex.).

Like-named read-outs stand apart in the source and are kept apart here.

As usually defined, the IC50 is the point on the concentration scale where inhibition reaches its midpoint. Higher therefore signals lower potency.

As for `O=C1CC[C@H](N2Cc3c(OCc4ccc(CN5CCOCC5)cc4)cccc3C2=O)C(=O)N1` [Compound 1A, (S)-3-[4-(4-morphlin-4-ylmethylbenzyloxy)-1-oxo-1,3-dihydro-isoindo-2-yl]piperidine-2,6-dione], in the test on Aiolos [1], the “Aiolos protein levels in whole blood leukocyte subsets” value is recorded as “reduced”. For the same molecule, the “Ikaros protein levels in whole blood leukocyte subsets” value with Ikaros was “reduced”. Also, the IC50 in test [2] and in test [3] was around 10 nM each time. Further, the “B cell intracellular Aiolos, percent of baseline” value in the test with Aiolos [4] (0.3 mg single dose, 24 hours postdose) is on record as 24.8%; in the test with Aiolos [4] (1 mg single dose, 12 hours postdose), 28.2%; in the test with Aiolos [4] (2 mg single dose, 12 hours postdose) it was 25.0%. In addition, the “T cell intracellular Aiolos, percent of baseline” value in the test with Aiolos [5] (1 mg single dose) was 22.3%; with Aiolos [5] (2 mg single dose) it was 26.1%. Also, the Emax in the test with CD19+ B cells (48 h, 1 mg, Day 2, read-out: absolute CD19+ cells, mean percent of baseline (maximum response)) was found to be 67.3%; in the test on CD19+ B cells (72 h, 0.3 mg, Day 3, read-out: absolute CD19+ cells, mean percent of baseline (maximum response)) it was 73.5%; with CD19+ B cells (72 h, 2 mg, Day 3, read-out: absolute CD19+ cells, mean percent of baseline (maximum response)), 51.3%. Further, the “peripheral blood T cell counts, percent of baseline” value in the test on CD3+ T cells (0.3 mg, Day 2) is reported as 84.1%; in the test on CD3+ T cells (1 mg, Day 2), 79.4%; with CD3+ T cells (2 mg, Day 5) it was 73.8%. Further, the “maximum IL-2, mean percent of baseline” value was 315% in the test on IL-2 (0.3 mg), 973% in the test with IL-2 (1 mg) and 915% in the test on IL-2 (2 mg). Further, the “maximum IL-1β response, mean percent of baseline” value with IL-1β (0.3 mg) came out at 42.2%; with IL-1β (1 mg), 21.8%; with IL-1β (2 mg), 16.3%.

These data come from patent US10980812B2, “3-(4-((4-(morpholinomethyl-benzyl)oxy)-1 -oxoisoindolin-2-yl)piperidine-2,6-dione for the treatment of systemic lupus erythematosus” (Celgene Corporation, priority 2014, dated 2021).
